Holding throughout (experiment): inhibition of tumour cell growth, NCI panel, 48 h
Test [1] relates to ACHN.
The subject of test [2] is CCRF-CEM.
The subject of test [3] is HCT-116.
The test system of test [4] is HL-60.
In test [5] the test system is HOP-92.
In test [6] the test system is LOX IMVI.
Test [7] deals with MDA-MB-435.
Test [8] concerns MDA-N.
Test [9] concerns MOLT-4.
The test system of test [10] is NCI-H226.
Test [11] deals with NCI-H23.
Test [12] deals with SF-539.
The test system of test [13] is SK-MEL-2.
For test [14], the system named is SK-OV-3.
For test [15], the system named is SN12C.
The subject of test [16] is SNB-19.
For test [17], the system named is SNB-75.
For test [18], the system named is U-251.
Test [19] concerns HCC 2998.

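48-hour exposure; five concentrations; linearly interpolated endpoints. Abbreviation: GI50, concentration required for 50% inhibition of growth.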 Calls of active or inactive are those of the source. Rule as the data show it: active = GI50 up to about 1.1 µM and inactive = higher. Where only a bound is given, the exact number is not on record here.

On to `Cn1c(=S)c2nc(SCCCc3ccccc3)[nH]c2n(C)c1=O`, for which the GI50 was 27.2 µM (inactive) in [1]; 6.59 µM (inactive) in [2]; 21.8 µM (inactive) in test [3]; 18.2 µM (inactive) in [4]; 78.3 µM (inactive) in test [5]; 27.5 µM (inactive) in [6]. Moreover, the GI50 in [7] was 23.2 µM (inactive); in test [8], 21.8 µM (inactive); in [9], 13.5 µM (inactive); in test [10] it was 21.5 µM (inactive); in [11], 16.7 µM (inactive); in test [12], 27.9 µM (inactive). Moreover, the GI50 is 40.8 µM (inactive) in [13]; 42.2 µM (inactive) in [14]; 26.5 µM (inactive) in [15]; 16.6 µM (inactive) in [16]; 22.6 µM (inactive) in test [17]; 23.2 µM (inactive) in test [18].

Consider `O=C1Nc2ccccc2/C1=N/Nc1ccccc1Cl`, for which the GI50 in [1] is 3.58 µM (inactive); in test [2], 45.9 µM (inactive); in [19], 81.1 µM (inactive); in test [3], 23.7 µM (inactive); in test [4] it was 68.1 µM (inactive); in test [6] it was 69 µM (inactive). Moreover, the GI50 in test [7] is > 100 µM (inactive); in test [8], 95.5 µM (inactive); in [9] it was 75.2 µM (inactive); in [10], 53.2 µM (inactive); in test [11] it was 42.8 µM (inactive); in test [12], 29 µM (inactive). Further, the GI50 in test [13] was 63.5 µM (inactive); in [14] it was 16.1 µM (inactive); in [15] it was 21.7 µM (inactive); in [16] it was 29.8 µM (inactive); in test [17], 22.1 µM (inactive); in test [18], 17.6 µM (inactive).

Turning to `CN(C)c1ccc(/C=C(\C#N)C(N)=C(C#N)C#N)cc1`, the GI50 in test [1], in [2], in test [19], in [3], in test [4] and in [5] was > 100 µM (inactive) throughout. The GI50 in [6], in test [7], in test [8], in test [10], in [11] and in test [12] was > 100 µM (inactive) throughout. Also, the GI50 in [14], in [15], in test [16] and in test [18] was > 100 µM (inactive) in each case.

For `COC(=O)[C@H]1C[C@H]1NC(=O)C(CC(=O)OCc1ccccc1)NC(=O)OCc1ccccc1` (stereo partly specified), the GI50 in test [1] is 36.8 µM (inactive); in [2], 31.6 µM (inactive); in [19] it was 88.3 µM (inactive); in test [3], 47.6 µM (inactive); in [4], 17.9 µM (inactive); in test [6] it was 83 µM (inactive). Further, the GI50 in test [7] is 35 µM (inactive); in test [8] it was 60.1 µM (inactive); in test [9], 29.2 µM (inactive); in test [10], 89.5 µM (inactive); in test [11], 41.8 µM (inactive); in test [12], 97.5 µM (inactive). For the same compound, the GI50 in test [13] is 18.6 µM (inactive); in test [14], 55 µM (inactive); in test [15], > 100 µM (inactive); in test [16], > 100 µM (inactive); in [17], 36.2 µM (inactive); in test [18] it was 81.5 µM (inactive).

Consider `Cn1c2ccc(C3=NCCN3)cc2c2cc(C3=NCCN3)ccc21`, for which the GI50 in test [1] is 37.9 µM (inactive); in test [2], < 0.01 µM (active); in test [3] it was 21.9 µM (inactive); in test [4] it was < 0.01 µM (active); in test [5], 13.4 µM (inactive); in test [6] it was 49.4 µM (inactive). The GI50 is 61.8 µM (inactive) in test [7]; 53.1 µM (inactive) in test [8]; 0.637 µM (active) in test [9]; 30.1 µM (inactive) in test [10]; 4.16 µM (inactive) in test [11]; 29.4 µM (inactive) in test [12]. The GI50 in [13] was 33.5 µM (inactive); in test [14] it was 44.1 µM (inactive); in test [15], 6.31 µM (inactive); in test [16], 42.8 µM (inactive); in [17], 78.5 µM (inactive); in [18] it was 14.9 µM (inactive).

Turning to `COc1ccc2oc(=O)c3c(c2c1C)OC(C)(C)C=C3`, the GI50 in test [1], in test [2], in test [19], in test [3], in test [4] and in test [6] was > 100 µM (inactive) in each case. Further, the GI50 was > 100 µM (inactive) in [7]; > 100 µM (inactive) in test [8]; 44.1 µM (inactive) in test [9]; > 100 µM (inactive) in [10]; > 100 µM (inactive) in [11]; > 100 µM (inactive) in test [12]. Moreover, the GI50 in [13], in test [14], in test [15], in test [16], in [17] and in [18] was > 100 µM (inactive) throughout.

With `O=[N+]([O-])c1ccc(-c2cn(-c3ccc(Cl)cc3)cn2)cc1`, the GI50 in test [1] was 31.6 µM (inactive); in [2] it was > 100 µM (inactive); in test [19], > 100 µM (inactive); in [3], 27.4 µM (inactive); in test [4] it was > 100 µM (inactive); in test [6], 56.4 µM (inactive). Moreover, the GI50 in test [7] was > 100 µM (inactive); in test [8], > 100 µM (inactive); in test [9], > 100 µM (inactive); in test [10], 48.5 µM (inactive); in test [11], 20.4 µM (inactive); in [12], 3.8 µM (inactive). Besides, the GI50 is > 100 µM (inactive) in test [13]; 11.6 µM (inactive) in test [14]; 41.3 µM (inactive) in test [15]; 67 µM (inactive) in [16]; 8.57 µM (inactive) in [17]; 31.8 µM (inactive) in test [18].

With `COC(=O)[C@@]1(Cc2ccc(O)cc2)C[C@@H]2Cc3ccccc3N2N1`, the GI50 in [1] is > 100 µM (inactive); in test [3], 65.3 µM (inactive); in test [5], 43.6 µM (inactive); in [6], > 100 µM (inactive); in [7], > 100 µM (inactive); in test [8], 44.8 µM (inactive). Also, the GI50 in [9] is 4.8 µM (inactive); in test [10], 90.8 µM (inactive); in test [11] it was 56.9 µM (inactive); in [12] it was > 100 µM (inactive); in [13] it was 25.4 µM (inactive); in test [14] it was > 100 µM (inactive). The GI50 in test [15] is 71 µM (inactive); in test [16], > 100 µM (inactive); in test [18], 57.1 µM (inactive).

For `C[C@]12CC[C@@H]3c4ccc(OCC(=O)O)cc4CC[C@H]3[C@@H]1CCC2=O`, the GI50 in test [1] was > 100 µM (inactive); in test [2], 1.32 µM (inactive); in test [3], > 100 µM (inactive); in test [4] it was 0.13 µM (active); in test [5], > 100 µM (inactive); in test [6], > 100 µM (inactive). Also, the GI50 in test [7] is > 100 µM (inactive); in test [8], > 100 µM (inactive); in test [9], 15.1 µM (inactive); in [10], > 100 µM (inactive); in test [11], > 100 µM (inactive); in test [12], > 100 µM (inactive). Moreover, the GI50 in test [13], in test [14], in test [15], in test [16], in [17] and in test [18] was > 100 µM (inactive) throughout.

For `CCOP(=O)(O)CN1CCNCCN(CP(=O)(O)OCC)CCNCC1`, the GI50 in [1] is > 100 µM (inactive); in test [2], > 100 µM (inactive); in [3], > 100 µM (inactive); in test [4], 53 µM (inactive); in test [5], > 100 µM (inactive); in test [6], > 100 µM (inactive). The GI50 in [7], in test [8], in test [9], in [10], in test [12] and in test [13] was > 100 µM (inactive) each time. Besides, the GI50 in test [14], in test [15], in test [16], in test [17] and in [18] was > 100 µM (inactive) each time.

As for `Cc1c(-c2ccccc2)[nH]n(C2=NCCN2)c1=O`, the GI50 is > 100 µM (inactive) in test [1]; > 100 µM (inactive) in test [2]; > 100 µM (inactive) in test [3]; 88.5 µM (inactive) in test [4]; > 100 µM (inactive) in test [5]; > 100 µM (inactive) in test [6]. Also, the GI50 in test [7] was > 100 µM (inactive); in [8] it was > 100 µM (inactive); in test [9], > 100 µM (inactive); in [10], 52.8 µM (inactive); in test [11], > 100 µM (inactive); in [12], > 100 µM (inactive). Also, the GI50 in [13] is > 100 µM (inactive); in [14], > 100 µM (inactive); in test [16] it was > 100 µM (inactive); in [17], 30.4 µM (inactive); in [18], > 100 µM (inactive).

Values taken from ChEMBL document CHEMBL1201862, “PubChem BioAssay data set” (2004).
